Data reported in US6524603B1, “Process and composition for the antiparasitic treatment of the surroundings of animals” (priority 1996, dated 2003).

Test system: darkling beetles (Alphitobius diaperinus)
Test: Poultry house litter treatment, darkling beetle population monitored with 9 traps
Format: in vivo
Conditions: water-dispersible granules 80% compound (A), 150 g/ha; during the 10th week (end of a rearing cycle)
Protocol: The treatment took place on the clean litter before the poultry was installed therein. The clean litter was essentially composed of straw.
On the day after the treatment, a group of chicks aged 1 to 2 days was installed in the rearing house at the rate of approximately 7 animals per m^2.
The change in the population of darkling beetles (Alphitobius diaperinus) in the litter was regularly monitored using 9 homogeneously distributed traps. Measurements were carried out each week from the second week after the treatment until rearing was halted.
The total population of darkling beetles in the 9 traps of the treated poultry house varied between 11 and 96 until the 9th week after treatment whereas, in a similar but untreated poultry house, the population of darkling beetles (larvae and adults) oscillated between 1000 and 3000 at each counting point.

Question: For `N#Cc1nn(-c2c(Cl)cc(C(F)(F)F)cc2Cl)c(N)c1[S+]([O-])C(F)(F)F` (stereo not shown) [compound (A), 1-[2,6-Cl2-4-CF3phenyl]-3-CN-4-[SO—CF3]-5-NH2pyrazole], which “control of darkling beetles” value is on record?
Answer: The value was 86%.
